Here are results for 80 molecules from the RepoRT retention time repository (doi:10.1021/acs.analchem.2c02893).

A short description of the data set: RP, Thermo Scientific Acclaim RSLC 120 C18, 100 × 2.1 mm, 2.2 µm, 30 °C, 0.2 mL/min, estimated dead time 1.1 min; A: 90% water + 10% methanol + 0.01% formic acid + 5 mM ammonium formate, pH 3.61; B: methanol + 0.01% formic acid + 5 mM ammonium formate, pH 3.61; gradient (min/%B) 0/1 1/1 2/39 13/99.9 15/99.9 15.1/1 20.1/1. The following applies: stereoisomer not certain.
Turning to `O=C(CCCN1CCC(O)(c2ccc(Br)cc2)CC1)c1ccc(F)cc1` [Bromperidol], the LC retention time is 7.12 min.

On to `CN(C)CCC(c1ccc(Br)cc1)c1ccccn1` (stereo not given) [Brompheniramine], for which the LC retention time is 6.56 min.

With `CC(C)C(Br)C(=O)NC(N)=O` (stereo not given) [Bromural (Bromisoval)], the LC retention time is 6.17 min.

As for `Cc1nnc2n1-c1sc(Br)cc1C(c1ccccc1Cl)=NC2` [Brotizolam], the LC retention time was 8.28 min.

`COc1cc2c(cc1OC)C13CCN4CC5=CCOC6CC(=O)N2C1C6C5CC43` (stereo not given) [Brucine]: the LC retention time was 4.21 min.

As to `CCOc1ccc(NC(=O)CC(C)O)cc1` (stereo not given) [Bucetin], the LC retention time is 6.27 min.

Take `CCCC1OC2CC3C4CCC5=CC(=O)C=CC5(C)C4C(O)CC3(C)C2(C(=O)CO)O1` (stereo not given) [Budesonide]: the LC retention time was 10.3 min.

On to `CC(C)(C)N1CCC(c2ccccc2)(c2ccccc2)CC1` [Budipine], for which the LC retention time is 6.72 min.

With `CN(C)CCc1c[nH]c2ccc(O)cc12` [Bufotenin], the LC retention time was 2.82 min.

For `COc1ccc2c(c1O)-c1c3c(cc4c1C(C2)N(C)CC4)OCO3` (stereo not given) [Bulbocapnine], the LC retention time is 4.36 min.

In the case of `CCCCNc1cc(C(=O)O)cc(S(N)(=O)=O)c1Oc1ccccc1` [Bumetanide], the LC retention time is 7.83 min.

Regarding `CC(C)(C)NCC(O)COc1ccccc1C#N` (stereo not given) [Bunitrolol], the LC retention time is 4.66 min.

With `CCC(NC)C(=O)c1ccc(C)cc1` (stereo not given) [Buphedrone-4-Methyl], the LC retention time was 5.04 min.

With `CCC(NC)C(=O)c1ccccc1` (stereo not given) [Buphedrone], the LC retention time was 4.26 min.

As for `CCCCc1c(C)nc(NCC)nc1OS(=O)(=O)N(C)C` [Bupirimate], the LC retention time was 10.5 min.

In the case of `CCCCN1CCCCC1C(=O)Nc1c(C)cccc1C` (stereo not given) [Bupivacaine], the LC retention time is 6.18 min.

Take `CC(C)(C)NCC(O)COc1cc(C(=O)O)ccc1Cl` (stereo not given) [Bupranolol- 5-Carboxy]: the LC retention time was 5.01 min.

Regarding `Cc1ccc(Cl)c(OCC(O)CNC(C)(C)C)c1` (stereo not given) [Bupranolol], the LC retention time is 7.07 min.

Take `COC12CCC3(CC1C(C)(O)C(C)(C)C)C1Cc4ccc(O)c5c4C3(CCN1CC1CC1)C2O5` (stereo not given) [Buprenorphine (BN)]: the LC retention time was 7.96 min.

For `CC(C)N1C(=O)N(c2ccccc2)CSC1=NC(C)(C)C` [Buprofezin  (Z-isomer. Buprofexin)], the LC retention time was 12.2 min.

For the molecule `CC(NC(C)(C)C)C(=O)c1cccc(Cl)c1` (stereo not given) [Bupropion], the LC retention time was 5.76 min.

Turning to `O=C1CC2(CCCC2)CC(=O)N1CCCCN1CCN(c2ncccn2)CC1` [Buspirone], the LC retention time is 5.78 min.

As for `CCCCOCN(C(=O)CCl)c1c(CC)cccc1CC` [Butachlor], the LC retention time is 12.3 min.

As to `C=CCOC(=O)C(C)(C)OC(=O)c1cc(-n2c(=O)cc(C(F)(F)F)n(C)c2=O)ccc1Cl` [Butafenacil], the LC retention time is 9.89 min.

With `CCOP(=S)(NC(C)CC)Oc1cc(C)ccc1[N+](=O)[O-]` (stereo not given) [Butamifos], the LC retention time was 11.2 min.

With `CC(C)CC1Nc2cc(Cl)c(S(N)(=O)=O)cc2S(=O)(=O)N1` (stereo not given) [Butizide], the LC retention time was 6.14 min.

`CCCCOc1ccc(C(=O)OCCN(CC)CC)cc1` [Butoxycaine]: the LC retention time was 11.3 min.

As for `CNC(=O)ON=C(C)C(C)S(C)(=O)=O` (stereo not given) [Butoxycarboxim], the LC retention time is 3.66 min.

On to `CCC(C)Nc1c([N+](=O)[O-])cc(C(C)(C)C)cc1[N+](=O)[O-]` (stereo not given) [Butralin], for which the LC retention time was 13 min.

With `CN(C)c1ccc(N=Nc2ccccc2)cc1` [Butter yellow], the LC retention time was 12.4 min.

For the molecule `C#CC(C)N(C)C(=O)Nc1ccc(Cl)cc1` (stereo not given) [Buturon], the LC retention time was 8.35 min.

Take `CCSC(=O)N(CC(C)C)CC(C)C` [Butylate]: the LC retention time was 12 min.

`CCC(NC)C(=O)c1ccc2c(c1)OCO2` (stereo not given) [Butylone]: the LC retention time is 4.34 min.

As to `CCCCOC(=O)c1ccc(O)cc1` [Butylparaben], the LC retention time was 9.46 min.

Take `O=C(NC(CO)C(O)c1ccc([N+](=O)[O-])cc1)C(Cl)Cl` (stereo not given) [CAF-3]: the LC retention time was 12.7 min.

In the case of `O=C(c1cccc(F)c1)N1CCC(N2CCN(c3ccccc3)CC2)CC1` [CC-2201], the LC retention time is 11.3 min.

As to `Cn1sc(Cl)cc1=O` [CMI (5-Chloro-2-methyl-4-isothiazolin-3-on)], the LC retention time was 4.51 min.

For the molecule `CCCCCCCC(C)(C)c1ccc(C2CCCC(O)C2)c(O)c1` (stereo not given) [CP 47-497-C8], the LC retention time is 13.5 min.

As for `CCCCCCC(C)(C)c1ccc(C2CCCC(O)C2)c(O)c1` (stereo not given) [CP 47-497], the LC retention time is 13.1 min.

For the molecule `CCCCCCC(C)(C)c1ccc(C2CC(O)CCC2CCCO)c(O)c1` (stereo not given) [CP 55-940], the LC retention time is 12 min.

For `CCOP(=O)(SC(C)CC)SC(C)CC` (stereo not given) [Cadusafos], the LC retention time is 11.5 min.

For `CN(CCO)c1nc2c(c(=O)n(C)c(=O)n2C)n1C` [Cafaminol], the LC retention time is 4.94 min.

`CN(C)C(=O)OC1N=C(c2ccccc2)c2cc(Cl)ccc2N(C)C1=O` (stereo not given) [Camazepam]: the LC retention time was 10 min.

`CC(C)OC(=O)Nc1ccc2nc(-c3cscn3)[nH]c2c1` [Cambendazol]: the LC retention time was 7.66 min.

With `CCOc1nc2cccc(C(=O)OC(C)OC(=O)OC3CCCCC3)c2n1Cc1ccc(-c2ccccc2-c2nn[nH]n2)cc1` (stereo not given) [Candesartan cilexetil], the LC retention time is 12.2 min.

As for `CCOc1nc2cccc(C(=O)O)c2n1Cc1ccc(-c2ccccc2-c2nn[nH]n2)cc1` [Candesartan], the LC retention time was 7.93 min.

On to `C=C(C)C1CCC(C)=CC1c1c(O)cc(CCCCC)cc1O` (stereo not given) [Cannabidiol], for which the LC retention time is 12.7 min.

As for `CCCCCc1cc(O)c2c(c1)OC(C)(C)c1ccc(C)cc1-2` [Cannabinol], the LC retention time was 13.7 min.

`CC12CCC(=O)C=C1C=CC1C2CCC2(C)C1CCC21CCC(=O)O1` (stereo not given) [Canrenone]: the LC retention time is 9.77 min.

In the case of `CCCCCOC(=O)Nc1nc(=O)n(C2OC(C)C(O)C2O)cc1F` (stereo not given) [Capecitabin], the LC retention time is 7.59 min.

In the case of `CCCCCC(=O)c1ccc(O)cc1O` [Caproylresorcinol], the LC retention time was 10.4 min.

As for `COc1cc(CNC(=O)CCCCC=CC(C)C)ccc1O` [Capsaicin], the LC retention time is 9.83 min.

For `O=C1C2CC=CCC2C(=O)N1SC(Cl)(Cl)Cl` (stereo not given) [Captan], the LC retention time is 8.77 min.

With `CC(CS)C(=O)N1CCCC1C(=O)O` (stereo not given) [Captopril], the LC retention time was 4.59 min.

`CC(C)NCC(O)COc1cccc2[nH]c3ccccc3c12` (stereo not given) [Carazolol]: the LC retention time was 5.49 min.

Regarding `NC(=O)N1c2ccccc2CC(O)c2ccccc21` (stereo not given) [Carbamazepine -10-Hydroxy], the LC retention time was 5.94 min.

`NC(=O)N1c2ccccc2C(O)C(O)c2ccccc21` (stereo not given) [Carbamazepine-10.11-dihydro-10.11 dihydroxy]: the LC retention time was 5.79 min.

For `NC(=O)N1c2ccccc2C2OC2c2ccccc21` (stereo not given) [Carbamazepine-10.11-epoxide], the LC retention time is 6.04 min.

As to `NC(=O)N1c2ccccc2C=Cc2ccccc21` [Carbamazepine], the LC retention time is 7.36 min.

Consider `CCN(CC)C(=O)N1CCN(C)CC1` [Carbamazine-Diethyl], for which the LC retention time was 3.16 min.

Turning to `CNC(=O)Oc1cccc2ccccc12` [Carbaryl], the LC retention time is 7.46 min.

Take `COC(=O)Nc1nc2ccccc2[nH]1` [Carbendazim]: the LC retention time was 5.46 min.

Take `CCNC(=O)C(C)OC(=O)Nc1ccccc1` (stereo not given) [Carbetamide]: the LC retention time is 6.58 min.

Turning to `CN(C)CCOC(c1ccc(Cl)cc1)c1ccccn1` (stereo not given) [Carbinoxamine], the LC retention time is 6.08 min.

With `CNC(=O)Oc1cccc2c1OC(C)(C)C2O` (stereo not given) [Carbofuran-3-hydroxy], the LC retention time is 5.09 min.

`CNC(=O)Oc1cccc2c1OC(C)(C)C2` [Carbofuran]: the LC retention time is 7.01 min.

For `CCOP(=S)(OCC)SCSc1ccc(Cl)cc1` [Carbophenothion], the LC retention time was 12.9 min.

For `CCCCN(CCCC)SN(C)C(=O)Oc1cccc2c1OC(C)(C)C2` [Carbosulfan], the LC retention time was 13.8 min.

With `CC1=C(C(=O)Nc2ccccc2)S(=O)(=O)CCO1` [Carboxin-Oxy], the LC retention time is 5.59 min.

With `CC1=C(C(=O)Nc2ccccc2)SCCO1` [Carboxin], the LC retention time was 7.46 min.

As for `CCCCNC(=O)NS(=O)(=O)c1ccc(N)cc1` [Carbutamide], the LC retention time is 5.36 min.

`CC(C)(C)NCC(O)c1ccc(O)c(NC(N)=O)c1` (stereo not given) [Carbuterol]: the LC retention time was 2.89 min.

Turning to `CCOC(=O)C(Cl)Cc1cc(-n2nc(C)n(C(F)F)c2=O)c(F)cc1Cl` (stereo not given) [Carfentrazone-ethyl], the LC retention time is 10.7 min.

For `CCCC(C)(COC(N)=O)COC(=O)NC(C)C` (stereo not given) [Carisoprodol], the LC retention time was 7.99 min.

Consider `CC(C)(C)NCC(O)COc1cccc2c1CCC(=O)N2` (stereo not given) [Carteolol], for which the LC retention time was 3.91 min.

`CCCNC(C)C(=O)Nc1c(C)csc1C(=O)OC` (stereo not given) [Carticaine (Articaine)]: the LC retention time is 4.69 min.

`COc1ccccc1OCCNCC(O)COc1cccc2[nH]c3ccccc3c12` (stereo not given) [Carvedilol]: the LC retention time was 6.91 min.

With `CC(N)C(O)c1ccccc1` (stereo not given) [Cathine / Ephedrine-Nor (Cathin. Phenylpropanolamine)], the LC retention time is 3.68 min.

For `CC(C(=O)c1ccccc1)N(C)C` (stereo not given) [Cathinone-Dimethyl], the LC retention time was 3.64 min.

For `CCNC(C)C(=O)c1ccccc1` (stereo not given) [Cathinone-Ethyl], the LC retention time was 3.93 min.
